Results reported in patent US5712251A, “Treatment method” (Roussel Uclaf, priority 1979, dated 1998).

Legend:
ovarian steroidogenosis = assay: Inhibitory activity on ovarian steroidogenesis in women (Example 3); type: in vivo
Procedure: The study was conducted for 6 consecutive cycles consisting of 2 pretreatment cycles, 2 treatment cycles and 2 post-treatment cycles. […] Daily blood samples were taken between 4 and 6 P.M. to measure seric levels of LH, FSH, progesterone and estradiol which were determined by radioimmuno-logic tests with double antibodies. The antibodies to measure LH and FSH were furnished by the National Pituitary Agency of N.I.H. of Bethesda, Md.
Estradiol and progesterone were measured with highly specific antibodies developed against 7-(O-carboxymethyl)-oxime of estradiol and 12-(O-carboxymethyl)-oxime of progesterone, respectively [3H] 17β-estradiol and ^125 I-progesterone-12-[O-carboxymethyl)-oxime]used as tracers. The serum was extracted with benzene and the steroids were separated with a LH-20 column before the determination. The radioimmunological results were exploited by the program derived from model II of Rodbard and Lewald as in Example 1 and the statistical significance was measured by the multiple level test of Ducan-Kramer of Example 1. The results are shown in the graphs of sheets 3 to 5 of the Figures.

[1] = system: testicular steroidogensis; assay: Inhibitory activity against testicular steroidogenesis in men in good health, single intranasal dose (Example 1); type: in vivo; details: for level of testosterone/steroids on the fourth day after administration: single intranasal dose of 500 μg, fourth day (until 6th day)
Procedure: The inhibitory activity of D Ser (Tbu)^6 or Gly^10 LH-RH ethylamide (described in German application Ser. No. 2,438,350) against testicular steroidogensis in men in good health was determined on men in good health aged 30 to 40 years. The said product was administered intranasally at a dose of 500 μg in a few drops of distilled water at 8 A.M. on the third day of the test. For 2 days prior to the treatment and for 6 days after the treatment, samples of blood were taken daily at 8 A.M., 3 P.M. and 10 P.M. On the day of administration of the LH-RH agonist, blood samples were taken at 11 A.M. and 6 P.M.
The seric concentrations of LH and FSH were measured by radioimmuno-logic dosages with double antibodies and the antibodies for measuring LH and FSH were furnished by the National Pituitary Agency of N.I.H. in Bethesda, Md. The seric concentrations of steroids was measured by radioimmuno-logic dosages in which one ml of serum was extracted with ether and the steroids were separated on a LH-20 column before measuring with radioimmuno-logic dosages. The radioimmuno-logic dosage results were determined by a program derived from model II of Rodbard et al [Second Karolinska Symposium on Research Methods in Reproductive Endocrinology, Diezfalusky Editer, Copenhague (1970), p. 79-103]. The statistical significance was determined by the "multiple level test" of Duncan-Kramer [Kramer, Biometrics, Vol 12 (1956), p. 307]. The results are shown in the graphs on sheet 1 of the Figures filed herewith.

[2] = system: prostate and seminal vesicules; assay: Peptide in association with an antiandrogen: weight of prostate and seminal vesicles of rats (Example 4); type: in vivo, rats of the Sprague-Dawley strain; details: 100 or 500 μg peptide s.c. daily plus 5 mg product A twice daily, 14 days
Procedure: The effect of the administration of D Ser (Tbu)^6 of Gly^10 LH-RH ethylamide in association with an antiandrogen was determined on groups of 9 normal rats of the Sprague-Dawley strain weighing about 250 g. The rats received for 14 days a subcutaneous administration at 9 A.M. of D Ser (Tbu)^6 of Gly^10 LH-RH ethylamide at a dose of 20, 100 or 500 μg in physiological serum and at 9 A.M. and 4 P.M. doses of 1 or 5 mg of 5,5-dimethyl-3-[4-nitro-3-trifluoromethyl-phenyl]-2,4-imidazolidinedione (product A) in solution in sesame oil containing 5% of benzyl alcohol. One group of rats received only physiological serum and one group received only product A.
The animals were killed 24 hours after the last injection and the weight of the prostate and seminal vesicules of the rats were determined.

[3] = 3rd day following peptide administration, intranasal 500 μg

With `CCNC(=O)[C@@H]1CCCN1C(=O)[C@H](CCCNC(=N)N)NC(=O)[C@H](CC(C)C)NC(=O)[C@@H](COC(C)(C)C)NC(=O)[C@H](Cc1ccc(O)cc1)NC(=O)[C@H](CO)NC(=O)[C@H](Cc1c[nH]c2ccccc12)NC(=O)[C@H](Cc1c[nH]cn1)NC(=O)[C@@H]1CCC(=O)N1` [D Ser (Tbu)^6 of Gly^10 LH-RH ethylamide] the “progesterone level in cycles of post-treatment, pretreatment cycles as base of 100%” value (ovarian steroidogenosis; 12 cycles, 6 women) was 99%, the “progesterone level in cycles of treatment, pretreatment cycles as base of 100%” value (ovarian steroidogenosis; 12 cycles, 6 women) was 46% and the “level of progesterone reduced as compared to the controls” value (ovarian steroidogenosis; review of 12 cycles (sheet 5)) was 46%. For the same compound, the “level of seric progesterone in the 2 cycles of post-treatment” value (ovarian steroidogenosis; sheet 4) was “return to normal”, the “reduction of seric level of progesterone as compared to controls, first treatment cycle” value (ovarian steroidogenosis; typical subject (sheet 3), 500 μg intranasal at 8 A.M. and 5 P.M. on one day between 4th and 9th day after LH peak) was 13% and the “reduction of seric level of progesterone as compared to controls, second treatment cycle” value (ovarian steroidogenosis; typical subject (sheet 3), same regimen) was 34%. For the same compound, the “concentration of 17-OH-progesterone relative to initial control values” [1, 3] was 40%, the “concentration of testosterone relative to initial control values” [1, 3] was 50% and the FSH plasmatic level ([1]; intranasal 500 μg, men) was “increase”. For the same compound, the LH plasmatic level ([1]; intranasal 500 μg, men) was “increase”, the “level of testosterone/steroids on the fourth day after administration” value ([1]; listed as D Ser (Tbu)^6 or Gly^10 LH-RH ethylamide) was “returned to normal” and the “level of testosterone/steroids on the fourth day after administration” value ([1]; listed as peptide) was “return to normal levels”. The “weight of the prostate” value [2] was “Similar, but a little less marked” and the “weight of the seminal vesicules” value [2] was “approached the weight of the seminal vesicules of castrated rats”.
